According to patent US20080234262A1 (Wyeth, priority 2007, published 2008):

Key:
PI3K = PI3K (Homo sapiens, UniProt P42336); experiment: Fluorescence polarization assay for PI3K; assay type: biochemical; conditions: PI3Kα; read-out: PI3Kα IC50;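 also: PI3K kinase reaction on PIP2 with ATP, 30-60 min, product sensed by GST-GRP with red probe in fluorescence polarization (mP), controls without enzyme and at zero time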
prostate line LNCap = experiment: In vitro cell culture growth assay (MTS), LNCap; assay type: cell-based, human; conditions: LNCap cells, three days after drug treatment
breast line MDA468 = experiment: In vitro cell culture growth assay (MTS), MDA468; assay type: cell-based, human; conditions: MDA468 cells, three days after drug treatment
Method in brief: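 MDA468 or LNCap cells received inhibitors one day after plating and were grown for three days. Viable cell density read by MTS conversion, absorbance 490 nm, expressed as percent of control growth versus vehicle-treated cells on the same plate.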

Chain of PI3K (P42336 whole entry): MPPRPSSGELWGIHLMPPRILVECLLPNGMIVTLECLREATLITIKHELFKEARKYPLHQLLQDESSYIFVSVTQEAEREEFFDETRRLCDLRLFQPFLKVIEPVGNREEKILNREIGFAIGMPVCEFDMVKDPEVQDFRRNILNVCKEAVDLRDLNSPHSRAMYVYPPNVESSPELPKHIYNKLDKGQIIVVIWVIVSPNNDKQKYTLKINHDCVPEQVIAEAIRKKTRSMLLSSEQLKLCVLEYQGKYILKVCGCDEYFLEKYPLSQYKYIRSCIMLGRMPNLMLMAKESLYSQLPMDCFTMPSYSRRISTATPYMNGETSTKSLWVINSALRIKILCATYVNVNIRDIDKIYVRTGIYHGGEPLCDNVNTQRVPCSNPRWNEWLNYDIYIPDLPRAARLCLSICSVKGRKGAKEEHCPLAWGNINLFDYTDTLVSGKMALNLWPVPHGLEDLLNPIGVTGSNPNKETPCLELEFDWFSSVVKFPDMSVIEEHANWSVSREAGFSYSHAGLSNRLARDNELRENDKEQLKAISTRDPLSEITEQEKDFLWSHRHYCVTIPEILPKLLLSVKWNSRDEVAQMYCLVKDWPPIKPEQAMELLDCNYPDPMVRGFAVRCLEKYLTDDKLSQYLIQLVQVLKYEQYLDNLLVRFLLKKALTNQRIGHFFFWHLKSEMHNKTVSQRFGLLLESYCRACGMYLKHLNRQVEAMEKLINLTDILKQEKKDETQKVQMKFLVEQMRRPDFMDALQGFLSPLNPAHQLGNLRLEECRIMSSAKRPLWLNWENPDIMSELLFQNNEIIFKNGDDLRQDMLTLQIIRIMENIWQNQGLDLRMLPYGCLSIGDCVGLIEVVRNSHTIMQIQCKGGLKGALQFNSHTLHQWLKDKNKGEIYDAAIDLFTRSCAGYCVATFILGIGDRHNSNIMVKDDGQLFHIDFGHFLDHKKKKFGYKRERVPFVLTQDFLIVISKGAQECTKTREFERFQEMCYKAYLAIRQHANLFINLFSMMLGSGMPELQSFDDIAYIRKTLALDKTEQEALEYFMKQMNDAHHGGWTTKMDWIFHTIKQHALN
Chain of PI3K (P27986 whole entry partner): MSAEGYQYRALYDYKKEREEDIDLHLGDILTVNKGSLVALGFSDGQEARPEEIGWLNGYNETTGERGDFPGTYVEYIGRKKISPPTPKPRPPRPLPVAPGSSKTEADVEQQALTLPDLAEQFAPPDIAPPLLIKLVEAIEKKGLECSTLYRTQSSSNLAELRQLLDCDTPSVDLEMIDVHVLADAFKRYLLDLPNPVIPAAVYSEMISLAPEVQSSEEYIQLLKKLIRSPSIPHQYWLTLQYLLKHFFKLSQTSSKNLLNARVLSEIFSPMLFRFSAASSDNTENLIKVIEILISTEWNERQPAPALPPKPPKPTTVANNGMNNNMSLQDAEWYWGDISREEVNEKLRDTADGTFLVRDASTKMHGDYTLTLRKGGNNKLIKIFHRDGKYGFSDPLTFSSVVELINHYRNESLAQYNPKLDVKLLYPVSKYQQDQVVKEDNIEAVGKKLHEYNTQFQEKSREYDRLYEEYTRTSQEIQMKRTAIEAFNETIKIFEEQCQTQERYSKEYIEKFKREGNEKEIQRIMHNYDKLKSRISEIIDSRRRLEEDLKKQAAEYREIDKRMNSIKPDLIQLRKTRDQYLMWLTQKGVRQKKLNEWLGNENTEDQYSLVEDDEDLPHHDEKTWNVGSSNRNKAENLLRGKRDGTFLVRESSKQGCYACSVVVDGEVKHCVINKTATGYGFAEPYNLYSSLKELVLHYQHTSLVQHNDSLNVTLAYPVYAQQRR

Row | Molecule | IC50 (PI3K) [nM] | IC50 (prostate line LNCap) [nM] | IC50 (prostate line LNCap; Homo sapiens, LNCaP, 72 h) [nM] | IC50 (breast line MDA468) [nM] | IC50 (breast line MDA468; Homo sapiens, 72 h) [nM]
1 | c1ccc(-n2ncc3c(N4CCOCC4)nc(-c4ccc[nH]4)nc32)cc1 [Compound 6] | 1350 | – | 2400 | – | 11000
2 | Oc1cccc(-c2nc(N3CCOCC3)c3cnn(C4CCN(Cc5ccc(Cl)cc5)CC4)c3n2)c1 [Compound 19] | 11 | – | 450 | – | 1700
3 | O=C(c1ccc(Cl)cc1)N1CCC(n2ncc3c(N4CCOCC4)nc(-c4cccc(O)c4)nc32)CC1 [Compound 27] | 41 | – | 550 | – | 2400
4 | c1ccc(CN2CCC(n3ncc4c(N5CCOCC5)nc(-c5ccc6cc[nH]c6c5)nc43)CC2)cc1 [Compound 49] | 1270 | – | 2100 | – | 5800
5 | NC(=O)c1cccc(-c2nc(N3CCOCC3)c3cnn(C4CCN(Cc5ccccc5)CC4)c3n2)c1 [Compound 82] | 877 | – | 13000 | – | 29000
6 | CS(=O)(=O)Nc1cccc(-c2nc(N3CCOCC3)c3cnn(C4CCN(Cc5ccccc5)CC4)c3n2)c1 [Compound 84] | 4200 | – | 12000 | – | 12000
7 | NS(=O)(=O)c1ccc(-c2nc(N3CCOCC3)c3cnn(C4CCN(Cc5ccccc5)CC4)c3n2)cc1 [Compound 85] | 2280 | – | 8000 | – | 9000
8 | CN(C)S(=O)(=O)c1ccc(-c2nc(N3CCOCC3)c3cnn(C4CCN(Cc5ccccc5)CC4)c3n2)cc1 [Compound 87] | 780 | – | 23000 | – | 60000
9 | Fc1cc(F)cc(-c2nc(N3CCOCC3)c3cnn(C4CCN(Cc5ccccc5)CC4)c3n2)c1 [Compound 88] | 2190 | – | 60000 | – | 58000
10 | O=S(=O)(c1ccccc1)N1CCC(n2ncc3c(N4CCOCC4)nc(-c4ccc5[nH]ccc5c4)nc32)CC1 [Compound 92] | 4640 | – | 8000 | – | 2500
11 | COC(=O)N1CCC(n2ncc3c(N4CCOCC4)nc(-c4ccc(NC(=O)Nc5ccc(CO)cc5)cc4)nc32)CC1 [Compound 912, methyl 4-{6-[4-({[4-(hydroxymethyl)phenyl]carbamoyl}amino)phenyl]-4-morpholin-4-yl-1H-pyrazolo[3,4-d]pyrimidin-1-yl}piperidine-1-carboxylate] | – | – | < 0.8 | – | < 0.8
12 | Cn1ncc2c(N3CCC(n4c(=O)[nH]c5ccccc54)CC3)nc(-c3ccccc3)nc21 [Example 12] | – | – | 750 | – | 12000
13 | Nc1cccc(-c2nc(N3CCOCC3)c3cnn(C4CCN(Cc5ccccc5)CC4)c3n2)c1 [Example 60] | – | – | 2000 | – | 5500
14 | CC(=O)Nc1ccc(-c2nc(N3CCOCC3)c3cnn(C4CCN(Cc5ccccc5)CC4)c3n2)cc1 [Example 80, N-{4-[1-(1-benzylpiperidin-4-yl)-4-morpholin-4-yl-1H-pyrazolo[3,4-d]pyrimidin-6-yl]phenyl}acetamide] | – | – | 450 | – | 2300
15 | COC(=O)Nc1ccc(-c2nc(N3CCOCC3)c3cnn(-c4ccccc4)c3n2)cc1 [Example 101, methyl [4-(4-morpholin-4-yl-1-phenyl-1H-pyrazolo[3,4-d]pyrimidin-6-yl)phenyl]carbamate] | – | – | 10000 | – | 22000
16 | CNC(=S)Nc1ccc(-c2nc(N3CCOCC3)c3cnn(C4CCN(Cc5cccnc5)CC4)c3n2)cc1 [Example 377, 1-methyl-3-(4-{4-morpholin-4-yl-1-[1-(pyridin-3-ylmethyl)piperidin-4-yl]-1H-pyrazolo[3,4-d]pyrimidin-6-yl}phenyl)thiourea] | – | – | 70 | – | 500
17 | N#CN=C(N)Nc1ccc(-c2nc(N3CCOCC3)c3cnn(C4CCN(Cc5cccnc5)CC4)c3n2)cc1 [Example 406, 2-cyano-1-(4-{4-morpholin-4-yl-1-[1-(pyridin-3-ylmethyl)piperidin-4-yl]-1H-pyrazolo[3,4-d]pyrimidin-6-yl}phenyl)guanidine] | – | – | 1400 | – | 1100
18 | COC(=O)Nc1ccc(-c2nc(N3CCOCC3)c3cnn(C4CCN(C(=O)c5ccc(C#N)cc5)CC4)c3n2)cc1 [Example 447, methyl (4-{1-[1-(4-cyanobenzoyl)piperidin-4-yl]-4-morpholin-4-yl-1H-pyrazolo[3,4-d]pyrimidin-6-yl}phenyl)carbamate] | – | – | 600 | – | 1200

More lines, main results first:

Row | IC50 (PI3K) [nM] | IC50 (prostate line LNCap) [nM] | IC50 (prostate line LNCap; Homo sapiens, LNCaP, 72 h) [nM] | Molecule | IC50 (breast line MDA468) [nM] | IC50 (breast line MDA468; Homo sapiens, 72 h) [nM]
19 | 1560 | 22000 | – | 1-(4-{1-[1-(methoxymethyl)piperidin-4-yl]-4-morpholin-4-yl-1H-pyrazolo[3,4-d]pyrimidin-6-yl}phenyl)-3-methylurea [Compound 796] | 30000 | –
20 | 36 | – | 370 | Oc1cccc(-c2nc(N3CCOCC3)c3cnn(C4CCNCC4)c3n2)c1 [Compound 9] | – | 2200
21 | 279 | – | 4700 | COc1cncc(-c2nc(N3CCOCC3)c3cnn(C)c3n2)c1 [Compound 11] | – | 5000
22 | 55 | – | 74 | Oc1cccc(-c2nc(N3CCOCC3)c3cnn(C4CCN(Cc5ccco5)CC4)c3n2)c1 [Compound 15] | – | 600
23 | 107 | – | 310 | Oc1cccc(-c2nc(N3CCOCC3)c3cnn(C4CCN(CC5CCCCC5)CC4)c3n2)c1 [Compound 17] | – | 2000
24 | 33 | – | 220 | COc1ccc(C(=O)N2CCC(n3ncc4c(N5CCOCC5)nc(-c5cccc(O)c5)nc43)CC2)cc1 [Compound 28, 3-{1-[1-(4-methoxybenzoyl)piperidin-4-yl]-4-morpholin-4-yl-1H-pyrazolo[3,4-d]pyrimidin-6-yl}phenol] | – | 1100
25 | 3680 | – | 60000 | O=C(O)CCC(=O)Nc1ccc(-c2nc(N3CCOCC3)c3cnn(C4CCN(Cc5ccccc5)CC4)c3n2)cc1 [Compound 81] | – | 45000
26 | 2410 | – | 4000 | NS(=O)(=O)c1cccc(-c2nc(N3CCOCC3)c3cnn(C4CCN(Cc5ccccc5)CC4)c3n2)c1 [Compound 83] | – | 7000
27 | 4660 | – | 7200 | CNS(=O)(=O)c1ccc(-c2nc(N3CCOCC3)c3cnn(C4CCN(Cc5ccccc5)CC4)c3n2)cc1 [Compound 86] | – | 6500
28 | 5190 | – | 15000 | Cn1ccc2cc(-c3nc(N4CCOCC4)c4cnn(C5CCN(Cc6ccccc6)CC5)c4n3)ccc21 [Compound 89] | – | 20000
29 | – | – | 4000 | CNS(=O)(=O)Nc1ccc(-c2nc(N3CCOCC3)c3cnn(C4CCN(C(=O)OC(C)(C)C)CC4)c3n2)cc1 [Compound 951, tert-butyl 4-(6-{4-[(methylsulfamoyl)amino]phenyl}-4-morpholin-4-yl-1H-pyrazolo[3,4-d]pyrimidin-1-yl)piperidine-1-carboxylate] | – | 7800
30 | – | – | 500 | COCC(=O)N1CCC(n2ncc3c(N4CCOCC4)nc(-c4cccc(O)c4)nc32)CC1 [Example 30] | – | 1400
31 | – | – | 10000 | CN(C)C(=O)c1ccc(-c2nc(N3CCOCC3)c3cnn(C4CCN(Cc5ccccc5)CC4)c3n2)cc1 [Example 71] | – | 13000
32 | – | – | 5100 | O=CNc1cccc(-c2nc(N3CCOCC3)c3cnn(C4CCN(Cc5ccccc5)CC4)c3n2)c1 [Example 77] | – | 9000
33 | – | – | 410 | Nc1ccc(-c2nc(N3CCOCC3)c3cnn(-c4ccccc4)c3n2)cn1 [Example 129, 5-(4-morpholin-4-yl-1-phenyl-1H-pyrazolo[3,4-d]pyrimidin-6-yl)pyridin-2-amine] | – | 1300
